In patent US10981186B2, “Functional treatment application to particulate materials such as mulch or potting soil” (priority 2014, dated 2021):

Key:
[1] = Screening test 4: recovery of herbicide active ingredient from mulch (methanol extraction, HPLC); assay type: physicochemical
Method: Screening test 4: Recovery of functional material from particulate material
In this experimental study the herbicide active ingredient was analyzed as the content of functional material (herbicide) as the active ingredient in the particulate material (mulch).
Assay protocol: Ten milliliters of 100% methanol was used to extract the herbicide actives, Pendimethalin and Dimethenamid-P from one gram of mulch. Methanol and mulch were added to a vial and shaken at approximately 180 rpm for 30 minutes on a shaker table. Methanol was filtered from mulch and analyzed for actives via HPLC. Active ingredient recovery was recorded as weight percent. […]
Table 2 and Table 3 show the results of an experiment related to the recovery of herbicide active ingredient from particulate material after providing functional herbicide coating. Table 2 and Table 3 show active ingredient releasing from the mulch at one month exposure compared to non-exposed mulch in warehouse.

[2] = system: red imported fire ant (Solenopsis invicta) workers; settings: rate evaluation, 0.5 to 3 X label rate
Text: Testing with red imported fire ant (Solenopsis invicta, RIFA), Argentine ant (Linepthema humile), and odorous house ant (OHA) workers. Ten inch plastic arenas (inside walls coated with Fluon® to prevent escape) were provided a layer of moistened play sand. A band of mulch was placed across the arena near one side. Between the closest side and the mulch, a micro-centrifuge tube with a universal ant diet was placed. In the larger open area of the arena was placed a water vial and a small weigh boat with either corn grit+soybean oil (RIFA) or 20% honey water (Argentine ant and OHA). Approximately 100 ants were placed in each arena. Mortality was evaluated at 6 or 7 days.

[3] = Black mulch, Warehouse (non-exposed)
[4] = Natural mulch, Warehouse (non-exposed)
[5] = Red mulch, Warehouse (non-exposed)

## COC[C@H](C)N(C(=O)CCl)c1c(C)csc1C [dimethenamid-P]
[1]; Black mulch, Bottom 1 month
  weight percent of dimethenamid-P: <LOD
[1]; Black mulch, Top 1 month
  weight percent of dimethenamid-P: 0.00003 weight percent
[1]; [3]
  weight percent of dimethenamid-P: 0.002 weight percent
[1]; Natural mulch, Bottom 1 month
  weight percent of dimethenamid-P: <LOD
[1]; Natural mulch, Top 1 month
  weight percent of dimethenamid-P: 0.00004 weight percent
[1]; [4]
  weight percent of dimethenamid-P: 0.00203 weight percent
[1]; Red mulch, Bottom 1 month
  weight percent of dimethenamid-P: 0.00000 weight percent
[1]; Red mulch, Top 1 month
  weight percent of dimethenamid-P: 0.00002 weight percent
[1]; [5]
  weight percent of dimethenamid-P: 0.00233 weight percent

## CCC(CC)Nc1c([N+](=O)[O-])cc(C)c(C)c1[N+](=O)[O-] [pendimethalin]
[1]; Black mulch, Bottom 1 month
  weight percent of pendimethalin: 0.00005 weight percent
[1]; Black mulch, Top 1 month
  weight percent of pendimethalin: 0.00044 weight percent
[1]; [3]
  weight percent of pendimethalin: 0.0044 weight percent
[1]; Natural mulch, Bottom 1 month
  weight percent of pendimethalin: 0.00026 weight percent
[1]; Natural mulch, Top 1 month
  weight percent of pendimethalin: 0.00079 weight percent
[1]; [4]
  weight percent of pendimethalin: 0.00674 weight percent
[1]; Red mulch, Bottom 1 month
  weight percent of pendimethalin: 0.00026 weight percent
[1]; Red mulch, Top 1 month
  weight percent of pendimethalin: 0.00054 weight percent
[1]; [5]
  weight percent of pendimethalin: 0.00302 weight percent

## CN/C(=N/CC1CCOC1)N[N+](=O)[O-] (stereo not shown) [dinotefuran]
[2]
  effectiveness over the rates tested (conclusion in words): effective at all rates tested
